Test results published in ChEMBL document CHEMBL1201862, “PubChem BioAssay data set” (2004).
Active and inactive are the calls of the source.

Key:
[1] = molecular target: Guanyl-specific ribonuclease T1 (Aspergillus oryzae (strain ATCC 42149 / RIB 40), UniProt P00651); test: RNase T1 inhibitors, dose response, counter-screen for TPT1 inhibitor project, biochemical, fluorescence polarization, 1536-well (AID 2167)
[2] = molecular target: Likely tRNA 2'-phosphotransferase (Candida albicans (strain SC5314 / ATCC MYA-2876) (Yeast), UniProt Q5A7N4); test: TPT1 tRNA phosphotransferase inhibitors, dose response, biochemical, fluorescence polarization (AID 2160)
[3] = molecular target: Bcl-2-like protein 10 (Homo sapiens, UniProt Q9HD36); test: displacers of TR3 peptide from Bcl-B, primary screen, selectivity assay for Bfl-1 inhibitor project, biochemical, fluorescence polarization, FITC-TR3 peptide (AID 748);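 further: fluorescence polarization from a fluorescein-labelled TR3 peptide binding purified Bcl-B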
[4] = molecular target: T1, Heat shock factor protein 1 (Mus musculus, UniProt P38532); test: inhibition of MG132-induced HSE-luciferase signal, confirmation, cell-based, NIH3T3, luminescence, dose retest (AID 2382); assay type: functional;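 further: NIH3T3 fibroblasts with HSF1-driven luciferase reporter stressed by proteasome inhibitor MG132; luminescence from HSF1-driven luciferase expression after 8 hours of MG132 stress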
T1 sequence (P38532 whole entry): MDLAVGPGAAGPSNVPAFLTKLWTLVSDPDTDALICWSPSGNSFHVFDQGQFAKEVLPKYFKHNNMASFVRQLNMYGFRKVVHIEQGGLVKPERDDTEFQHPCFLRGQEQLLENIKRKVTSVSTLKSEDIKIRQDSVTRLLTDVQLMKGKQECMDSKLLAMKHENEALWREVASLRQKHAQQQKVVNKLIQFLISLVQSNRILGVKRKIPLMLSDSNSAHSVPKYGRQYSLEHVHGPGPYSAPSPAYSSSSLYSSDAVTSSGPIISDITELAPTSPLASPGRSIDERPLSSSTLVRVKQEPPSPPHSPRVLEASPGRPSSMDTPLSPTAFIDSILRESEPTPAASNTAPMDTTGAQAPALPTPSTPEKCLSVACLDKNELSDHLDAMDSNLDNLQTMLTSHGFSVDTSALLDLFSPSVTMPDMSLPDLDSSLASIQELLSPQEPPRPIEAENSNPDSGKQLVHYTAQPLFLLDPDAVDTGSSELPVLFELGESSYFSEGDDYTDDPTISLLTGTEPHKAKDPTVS

[5] = molecular target: Lysosomal acid glucosylceramidase (Homo sapiens, UniProt P04062); test: Dose response cell-based high throughput screening assay to identify enhancers of beta-glucosidase activity. [Related pubchem assays: 784 ]; assay type: functional
[6] = NIH-3T3 fibroblast cytotoxicity, dose response, cytotoxicity control, cell-based, fluorescence, Alamar Blue, secondary assay (AID 2327); assay type: functional;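 further: NIH-3T3 mouse fibroblasts cultured with fluconazole at 8 µg/mL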
[7] = molecular target: Transitional endoplasmic reticulum ATPase (Homo sapiens, UniProt P55072, C522A); test: C522A mutant p97 ATPase inhibitors, dose response, counter-screen for p97 inhibitor project, biochemical, luminescence (AID 1544)
[8] = C. albicans growth with fluconazole, confirmation, fluorescence, retest (AID 2467); assay type: functional, cell-based
[9] = molecular target: Transitional endoplasmic reticulum ATPase (Homo sapiens, UniProt P55072); test: p97 ATPase inhibitors, dose response, biochemical (AID 1534)
[10] = molecular target: Trypsin (Sus scrofa, UniProt P00761); test: porcine trypsin inhibitors, dose response, selectivity assay for Rce1 protease inhibitor project, biochemical, quenched peptide fluorescence, cherry-pick (AID 488789)
[11] = molecular target: T2, Bcl-2-related protein A1 (Mus musculus, UniProt Q07440); assay type: functional;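 further: confirmatory dose–response counterscreen on Bfl-1, used to check hits from a UBC13 polyubiquitin inhibitor campaign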
T2 sequence (Q07440 whole entry): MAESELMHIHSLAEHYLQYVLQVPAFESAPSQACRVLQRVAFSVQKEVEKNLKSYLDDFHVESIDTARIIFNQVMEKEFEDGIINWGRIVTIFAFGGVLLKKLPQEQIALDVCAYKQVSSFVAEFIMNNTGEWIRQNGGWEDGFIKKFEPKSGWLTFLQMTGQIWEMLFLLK

[12] = molecular target: T3, Ubiquitin-conjugating enzyme E2 N (Homo sapiens, UniProt P61088); assay type: functional
T3 sequence (P61088 whole entry): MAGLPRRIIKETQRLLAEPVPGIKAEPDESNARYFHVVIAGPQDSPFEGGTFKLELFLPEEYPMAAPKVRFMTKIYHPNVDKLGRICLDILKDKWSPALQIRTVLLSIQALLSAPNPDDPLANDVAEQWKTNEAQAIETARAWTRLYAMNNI

[13] = molecular target: T4, CAAX prenyl protease 2 (Saccharomyces cerevisiae S288c, UniProt Q03530); assay type: biochemical
T4 sequence (Q03530 whole entry): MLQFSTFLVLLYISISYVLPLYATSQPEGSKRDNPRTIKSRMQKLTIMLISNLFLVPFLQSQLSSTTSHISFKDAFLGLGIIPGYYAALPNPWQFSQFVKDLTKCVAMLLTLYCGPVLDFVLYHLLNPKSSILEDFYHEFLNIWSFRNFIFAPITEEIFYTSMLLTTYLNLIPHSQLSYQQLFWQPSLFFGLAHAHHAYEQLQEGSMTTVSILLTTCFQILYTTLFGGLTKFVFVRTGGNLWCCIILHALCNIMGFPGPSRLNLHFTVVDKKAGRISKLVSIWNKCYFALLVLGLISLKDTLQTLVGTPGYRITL

[14] = molecular target: T3, Ubiquitin-conjugating enzyme E2 N; assay type: functional; remark: listed apart in the source
[15] = molecular target: T5, Replicative DNA helicase DnaB (Mycobacterium tuberculosis, UniProt P9WMR3); test: DnaB intein splicing inhibitors, dose response, biochemical, cell-free fluorescence (AID 449749); assay type: functional
T5 sequence (P9WMR3 whole entry): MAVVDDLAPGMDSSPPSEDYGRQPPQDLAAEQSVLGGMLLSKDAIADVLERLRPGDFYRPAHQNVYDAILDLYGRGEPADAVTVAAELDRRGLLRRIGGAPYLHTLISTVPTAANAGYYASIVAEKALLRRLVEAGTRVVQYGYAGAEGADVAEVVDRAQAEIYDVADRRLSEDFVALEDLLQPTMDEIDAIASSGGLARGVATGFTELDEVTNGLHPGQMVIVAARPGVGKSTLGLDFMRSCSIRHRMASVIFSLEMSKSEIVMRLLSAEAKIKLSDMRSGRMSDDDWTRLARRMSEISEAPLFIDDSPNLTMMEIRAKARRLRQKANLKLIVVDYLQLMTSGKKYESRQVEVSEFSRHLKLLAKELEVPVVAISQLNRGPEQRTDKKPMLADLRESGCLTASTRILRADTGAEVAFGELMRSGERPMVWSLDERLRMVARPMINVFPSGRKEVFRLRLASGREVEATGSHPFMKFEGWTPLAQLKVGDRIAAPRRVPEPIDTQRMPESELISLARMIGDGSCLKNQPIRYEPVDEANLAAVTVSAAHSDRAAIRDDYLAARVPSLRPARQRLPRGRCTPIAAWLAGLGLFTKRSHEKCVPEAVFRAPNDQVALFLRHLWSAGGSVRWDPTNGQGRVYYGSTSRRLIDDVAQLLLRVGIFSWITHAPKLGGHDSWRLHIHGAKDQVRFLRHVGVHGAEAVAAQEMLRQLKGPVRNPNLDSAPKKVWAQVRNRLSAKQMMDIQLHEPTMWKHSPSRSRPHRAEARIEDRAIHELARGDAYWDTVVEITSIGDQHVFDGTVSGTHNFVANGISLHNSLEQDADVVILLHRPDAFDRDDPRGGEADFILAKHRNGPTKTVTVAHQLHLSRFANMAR

[16] = molecular target: T6, Protein RecA (Mycobacterium tuberculosis, UniProt P9WHJ3); test: Fluorescence Cell-Free Homogeneous Dose Retest to Identify Inhibitors of RecA-Intein Splicing Activity. [Related pubchem assays (depositor defined):AID2097, AID2223, AID489010, AID492950]; assay type: functional
T6 sequence (P9WHJ3 whole entry): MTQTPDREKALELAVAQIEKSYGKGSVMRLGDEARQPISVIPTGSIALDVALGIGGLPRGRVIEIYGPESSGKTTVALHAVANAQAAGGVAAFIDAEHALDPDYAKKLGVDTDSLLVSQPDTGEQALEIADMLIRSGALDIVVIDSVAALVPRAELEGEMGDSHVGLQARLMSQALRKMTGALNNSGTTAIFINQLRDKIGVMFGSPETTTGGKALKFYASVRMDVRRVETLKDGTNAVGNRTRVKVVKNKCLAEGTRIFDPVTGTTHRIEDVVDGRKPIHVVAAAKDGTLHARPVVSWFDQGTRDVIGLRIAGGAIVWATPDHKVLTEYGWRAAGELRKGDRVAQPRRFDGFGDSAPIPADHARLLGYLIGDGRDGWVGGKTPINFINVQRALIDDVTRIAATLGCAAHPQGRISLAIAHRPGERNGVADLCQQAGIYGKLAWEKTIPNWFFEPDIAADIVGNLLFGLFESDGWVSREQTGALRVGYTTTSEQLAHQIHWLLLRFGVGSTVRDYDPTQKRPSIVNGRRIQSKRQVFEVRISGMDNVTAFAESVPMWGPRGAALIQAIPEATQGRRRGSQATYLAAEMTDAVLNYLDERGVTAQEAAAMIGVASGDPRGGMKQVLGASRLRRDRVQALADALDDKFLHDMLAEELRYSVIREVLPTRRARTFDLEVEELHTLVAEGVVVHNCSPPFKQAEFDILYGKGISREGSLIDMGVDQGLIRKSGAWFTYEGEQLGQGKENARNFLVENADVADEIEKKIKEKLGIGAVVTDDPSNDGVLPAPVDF

[17] = test system: INS1; test: beta cell apoptosis inhibitors, cytokine rescue, dose response, luminescence, retest (AID 449756); assay type: functional, cell-based; details: Rattus norvegicus;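 further: cell death triggered by IL-1 beta plus TNF-alpha plus IFN-gamma mixture; protective hits raise ATP signal compared with cytokine alone wells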
[18] = molecular target: T7, CAAX prenyl protease 2 (Homo sapiens, UniProt Q9Y256); test: human Rce1 protease inhibitors, dose response, biochemical, yeast membranes, quenched-peptide fluorescence, cherry-pick (AID 588849)
T7 sequence (Q9Y256 whole entry): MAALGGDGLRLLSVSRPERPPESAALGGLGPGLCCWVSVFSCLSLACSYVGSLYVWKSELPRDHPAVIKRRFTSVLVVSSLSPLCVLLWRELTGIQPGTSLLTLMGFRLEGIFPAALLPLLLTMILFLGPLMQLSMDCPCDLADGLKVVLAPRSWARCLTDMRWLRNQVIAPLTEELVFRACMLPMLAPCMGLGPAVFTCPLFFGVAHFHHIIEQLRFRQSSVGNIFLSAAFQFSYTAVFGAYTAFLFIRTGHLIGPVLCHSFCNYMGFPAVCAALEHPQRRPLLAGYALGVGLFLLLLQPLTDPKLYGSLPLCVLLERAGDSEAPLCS

[19] = molecular target: Cyclin-dependent kinase 5/CDK5 activator 1 (Homo sapiens, UniProt Q00535); test: CDK5/p35 kinase inhibitors, dose response, biochemical, cherry-picked samples, set 2 (AID 504545)
[20] = molecular target: Voltage-gated N-type calcium channel alpha-1B subunit/Amyloid beta A4 precursor protein-binding family A member 1 (Homo sapiens, UniProt Q00975+Q02410); test: disruptors of Mint-PDZ/N-type channel peptide interaction – biochemical, HTRF, set 2, SAR follow-up (AID 434980); assay type: functional
[21] = blockers of SFLLRN-triggered platelet ATP secretion – cell-based, human platelets, luminescence, dry powder, dose response (AID 493100); assay type: functional
[22] = HEp-2 cell cytotoxicity, dose response, cytotoxicity control for RSV inhibitor project, HTS (AID 2410); assay type: functional; details: human respiratory syncytial virus
[23] = molecular target: G-protein coupled receptor 35 (Homo sapiens, UniProt Q9HC97); test: GPR35 antagonists blocking zaprinast-driven arrestin recruitment, primary screen, imaging, U2OS, beta-arrestin-GFP, zaprinast agonist (AID 2058); assay type: functional;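 further: antagonist potency meaning inhibition of agonist-induced arrestin redistribution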
[24] = test system: Streptococcus sp. 'group A'; test: growth inhibition of control SK(-) GAS strain, dose response, counter-screen for streptokinase expression inhibitor project, luminescence, kanamycin, BacTiterGlo, confirmation (AID 1900); assay type: functional, organism-based
[25] = molecular target: T8, Streptokinase A (Streptococcus pyogenes serotype M1, UniProt P10520); test: S. pyogenes streptokinase expression inhibitors, potency, dose response, plasminogen activation absorbance, OD405 (AID 1914); assay type: functional, Streptococcus pyogenes M1 GAS;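 further: secreted streptokinase activity via plasminogen activation per viability signal from cell pellet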
T8 sequence (P10520 whole entry): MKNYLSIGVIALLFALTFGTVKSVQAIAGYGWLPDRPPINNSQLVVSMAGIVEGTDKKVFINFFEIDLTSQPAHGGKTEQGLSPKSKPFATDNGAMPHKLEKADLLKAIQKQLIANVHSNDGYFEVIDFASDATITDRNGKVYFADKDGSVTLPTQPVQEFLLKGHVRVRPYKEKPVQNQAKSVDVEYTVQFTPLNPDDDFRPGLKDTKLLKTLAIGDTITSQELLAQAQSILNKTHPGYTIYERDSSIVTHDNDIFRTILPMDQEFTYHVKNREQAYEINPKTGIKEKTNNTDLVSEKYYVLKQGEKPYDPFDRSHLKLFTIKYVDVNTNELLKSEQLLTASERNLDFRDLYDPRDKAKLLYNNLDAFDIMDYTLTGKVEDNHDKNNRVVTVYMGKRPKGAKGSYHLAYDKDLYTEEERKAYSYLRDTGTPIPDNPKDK

[26] = test system: Streptococcus; test: Group A Streptococcus viability loss, dose response, counter-screen for streptokinase expression inhibitor project, luminescence, BacTiterGlo (AID 1915); assay type: functional, organism-based;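 further: potency for reduction of bacterial viability or growth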

Chain of Transitional endoplasmic reticulum ATPase (Homo sapiens, UniProt P55072) (P55072 whole entry): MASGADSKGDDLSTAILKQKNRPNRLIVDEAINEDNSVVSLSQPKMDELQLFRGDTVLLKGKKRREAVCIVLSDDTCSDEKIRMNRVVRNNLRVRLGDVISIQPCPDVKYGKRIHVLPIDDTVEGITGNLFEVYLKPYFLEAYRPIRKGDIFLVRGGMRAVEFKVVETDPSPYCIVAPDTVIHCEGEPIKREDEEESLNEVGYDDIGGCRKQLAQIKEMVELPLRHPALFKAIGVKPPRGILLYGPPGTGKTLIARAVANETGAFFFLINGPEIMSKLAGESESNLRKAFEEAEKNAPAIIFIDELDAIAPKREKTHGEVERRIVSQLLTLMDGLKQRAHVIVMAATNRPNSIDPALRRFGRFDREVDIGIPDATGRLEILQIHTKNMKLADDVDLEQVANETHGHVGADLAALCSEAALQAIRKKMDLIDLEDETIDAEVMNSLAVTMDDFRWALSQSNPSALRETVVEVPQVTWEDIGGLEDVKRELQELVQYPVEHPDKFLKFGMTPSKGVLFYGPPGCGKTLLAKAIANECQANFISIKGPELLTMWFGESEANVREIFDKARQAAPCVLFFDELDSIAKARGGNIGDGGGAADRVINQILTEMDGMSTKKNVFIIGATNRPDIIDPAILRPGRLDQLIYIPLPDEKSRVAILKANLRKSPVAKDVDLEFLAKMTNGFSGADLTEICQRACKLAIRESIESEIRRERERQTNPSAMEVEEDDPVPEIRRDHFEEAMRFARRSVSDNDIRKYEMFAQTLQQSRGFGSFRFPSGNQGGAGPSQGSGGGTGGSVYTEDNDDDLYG
Chain of Trypsin (P00761 whole entry): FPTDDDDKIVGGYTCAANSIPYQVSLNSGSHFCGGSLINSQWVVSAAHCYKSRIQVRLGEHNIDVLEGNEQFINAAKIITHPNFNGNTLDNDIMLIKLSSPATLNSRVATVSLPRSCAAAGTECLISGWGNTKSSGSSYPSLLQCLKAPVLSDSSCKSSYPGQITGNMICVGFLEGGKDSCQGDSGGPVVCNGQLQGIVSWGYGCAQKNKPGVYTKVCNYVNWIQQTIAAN
Chain of Guanyl-specific ribonuclease T1 (P00651 whole entry): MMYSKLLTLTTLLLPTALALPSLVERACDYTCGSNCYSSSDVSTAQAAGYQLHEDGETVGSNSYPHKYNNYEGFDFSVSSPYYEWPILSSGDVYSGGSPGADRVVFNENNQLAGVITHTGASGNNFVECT
Chain of Cyclin-dependent kinase 5/CDK5 activator 1 (Q00535 whole entry): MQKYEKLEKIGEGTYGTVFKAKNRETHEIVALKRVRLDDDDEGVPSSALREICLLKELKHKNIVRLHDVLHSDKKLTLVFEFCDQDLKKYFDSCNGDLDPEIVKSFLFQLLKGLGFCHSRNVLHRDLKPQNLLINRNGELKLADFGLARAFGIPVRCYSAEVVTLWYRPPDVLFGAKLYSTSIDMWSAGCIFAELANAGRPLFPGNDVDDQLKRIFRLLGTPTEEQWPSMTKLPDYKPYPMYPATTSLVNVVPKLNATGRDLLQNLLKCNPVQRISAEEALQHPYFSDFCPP
Chain of Cyclin-dependent kinase 5/CDK5 activator 1 (Q15078 whole entry, further chain): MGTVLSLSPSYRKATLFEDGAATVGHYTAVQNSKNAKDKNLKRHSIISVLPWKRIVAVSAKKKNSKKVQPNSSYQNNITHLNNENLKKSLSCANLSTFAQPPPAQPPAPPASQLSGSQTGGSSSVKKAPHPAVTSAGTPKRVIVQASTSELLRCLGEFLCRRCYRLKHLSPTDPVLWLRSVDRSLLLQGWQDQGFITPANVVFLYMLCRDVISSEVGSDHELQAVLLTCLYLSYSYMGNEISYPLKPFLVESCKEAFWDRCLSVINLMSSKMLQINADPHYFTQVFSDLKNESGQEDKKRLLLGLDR
Chain of Transitional endoplasmic reticulum ATPase (Homo sapiens, UniProt P55072, C522A) (P55072 2-806 C522A limits assumed): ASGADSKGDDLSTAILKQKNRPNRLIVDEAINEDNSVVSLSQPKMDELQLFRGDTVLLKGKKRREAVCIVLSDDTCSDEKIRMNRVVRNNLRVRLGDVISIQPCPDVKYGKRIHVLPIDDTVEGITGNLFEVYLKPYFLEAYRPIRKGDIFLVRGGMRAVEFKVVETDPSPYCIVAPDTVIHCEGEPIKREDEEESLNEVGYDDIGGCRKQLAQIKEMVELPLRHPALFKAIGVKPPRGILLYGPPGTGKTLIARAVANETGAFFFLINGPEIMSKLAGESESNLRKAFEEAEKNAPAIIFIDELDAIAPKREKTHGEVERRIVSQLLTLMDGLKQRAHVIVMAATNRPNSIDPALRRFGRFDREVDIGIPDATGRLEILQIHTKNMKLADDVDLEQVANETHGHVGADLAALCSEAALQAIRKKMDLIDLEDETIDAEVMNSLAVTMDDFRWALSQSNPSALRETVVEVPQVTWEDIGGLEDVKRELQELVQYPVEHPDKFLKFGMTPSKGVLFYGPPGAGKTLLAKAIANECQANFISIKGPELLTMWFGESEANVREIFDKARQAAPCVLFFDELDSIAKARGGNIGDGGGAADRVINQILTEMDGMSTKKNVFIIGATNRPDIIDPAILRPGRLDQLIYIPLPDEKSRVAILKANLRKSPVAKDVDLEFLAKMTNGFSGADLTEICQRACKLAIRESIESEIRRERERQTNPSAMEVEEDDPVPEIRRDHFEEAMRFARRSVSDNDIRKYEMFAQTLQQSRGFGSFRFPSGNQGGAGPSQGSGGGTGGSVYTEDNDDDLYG
Chain of Bcl-2-like protein 10 (Q9HD36 whole entry): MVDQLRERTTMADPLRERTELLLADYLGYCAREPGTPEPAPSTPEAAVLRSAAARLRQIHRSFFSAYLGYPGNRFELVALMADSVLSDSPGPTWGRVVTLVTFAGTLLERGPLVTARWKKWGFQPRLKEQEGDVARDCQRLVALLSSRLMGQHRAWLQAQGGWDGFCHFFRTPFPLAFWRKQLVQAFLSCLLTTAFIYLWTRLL
Chain of Lysosomal acid glucosylceramidase (P04062 whole entry): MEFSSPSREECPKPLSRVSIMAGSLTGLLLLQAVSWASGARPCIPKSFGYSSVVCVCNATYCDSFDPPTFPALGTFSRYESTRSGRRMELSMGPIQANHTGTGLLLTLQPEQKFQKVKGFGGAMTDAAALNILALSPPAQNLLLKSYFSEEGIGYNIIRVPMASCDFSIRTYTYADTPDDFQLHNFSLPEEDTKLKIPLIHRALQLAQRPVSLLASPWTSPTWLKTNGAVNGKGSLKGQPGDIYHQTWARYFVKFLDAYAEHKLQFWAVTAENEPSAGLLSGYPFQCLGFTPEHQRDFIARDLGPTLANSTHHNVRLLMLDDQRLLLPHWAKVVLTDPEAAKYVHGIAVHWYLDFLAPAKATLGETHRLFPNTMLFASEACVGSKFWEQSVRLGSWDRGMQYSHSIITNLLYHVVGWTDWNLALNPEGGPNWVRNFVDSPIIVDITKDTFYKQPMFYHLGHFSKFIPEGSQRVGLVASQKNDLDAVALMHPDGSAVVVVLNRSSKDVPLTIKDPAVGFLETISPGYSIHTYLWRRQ
Chain of G-protein coupled receptor 35 (Q9HC97 whole entry): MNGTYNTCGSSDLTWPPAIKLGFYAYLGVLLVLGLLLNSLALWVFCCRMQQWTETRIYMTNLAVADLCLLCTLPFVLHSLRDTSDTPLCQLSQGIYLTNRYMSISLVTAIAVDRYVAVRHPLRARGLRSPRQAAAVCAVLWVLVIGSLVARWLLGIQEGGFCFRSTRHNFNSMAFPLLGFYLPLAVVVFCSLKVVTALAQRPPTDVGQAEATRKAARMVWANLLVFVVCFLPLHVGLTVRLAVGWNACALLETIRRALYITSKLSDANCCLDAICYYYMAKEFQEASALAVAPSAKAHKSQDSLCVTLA
Chain of Likely tRNA 2'-phosphotransferase (Q5A7N4 whole entry): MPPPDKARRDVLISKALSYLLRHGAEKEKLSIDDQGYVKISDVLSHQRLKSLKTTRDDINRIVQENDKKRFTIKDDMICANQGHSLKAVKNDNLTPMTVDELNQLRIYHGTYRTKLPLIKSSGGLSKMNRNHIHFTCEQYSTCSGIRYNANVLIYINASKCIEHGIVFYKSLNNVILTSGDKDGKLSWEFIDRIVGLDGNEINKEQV

Cc1ccc(OCCn2cccc2/C=C2/C(=O)NC(=O)N(Cc3ccco3)C2=O)cc1
IC50 [1]: > 55.7 µM (not active) | IC50 [2]: > 55.7 µM (not active)

COc1ccc(NC(=O)c2cc(CN3C(=O)c4ccccc4C3=O)ccc2OC)cn1
IC50 [3]: > 25 µM (inactive) | EC50 [4]: > 195 µM (not active)

COc1ccc(OC)c(Nc2nc(-c3sc(N)nc3C)cs2)c1
EC50 [5]: > 50 µM (not active)

c1ccc(CNc2nc(NCc3ccccc3)c3ccccc3n2)cc1
EC50 [6]: > 150 µM (inconclusive) | IC50 [7]: > 50 µM (not active) | EC50 [8]: > 38 µM (not active) | IC50 [9]: > 50 µM (not active) | AC50 [10]: 13.6 µM (active) | IC50 [11]: 12.4 µM (active) | IC50 [12]: 19.6 µM (active) | AC50 [13]: 39.5 µM (active) | IC50 [14]: 11 µM (active) | AC50 [15]: 6.13 µM (active) | EC50 [16]: 7.83 µM (active) | AC50 [17]: 7.6 µM (active) | AC50 [18]: 9.69 µM (active)

C=CCNC(=O)c1[nH]nc2c1CC(C(C)(C)CC)CC2 (stereo unspecified)
AC50 [19]: 3.18 µM (active)

O=C(c1cc(-c2ccco2)nc2ccccc12)N1CCc2cccnc21
IC50 [20]: > 56.8 µM (inactive)

O=C(N/N=C/c1ccc(NC(=O)C(F)(F)F)cc1)C1CCCC1
AC50 [21]: 22.3 µM (active)

CCOc1ccc(/C=N/NC(=O)Cc2csc(Nc3cccc(C(F)(F)F)c3)n2)cc1
CC50 [22]: 12.2 µM (active) | IC50 [23]: 2.1 µM (active) | EC50 [24]: 8.02 µM (active) | EC50 [25]: 20.1 µM (active) | EC50 [26]: 20.2 µM (active)
